How the values were obtained:
[1] = test system: head and neck cancer cell line (Cal-27); assay: Immunohistocytochemistry, HRP-dependent DAB staining (FIG. 4); format: cell-based
Thrombin = Thrombin (Homo sapiens, UniProt P00734); assay: Gel electrophoresis of PA-cetuximab after thrombin treatment (FIG. 5); format: biochemical; conditions: thrombin activation
Description: Protease cleavage of blocked PA-cetuximab causes size change as CDR blocking domains is proteolytically released from cetuximab panibody. Lane 1 is a protein marker.

EGFR = EGFR (Homo sapiens, UniProt P00533); assay: EGFR binding curve of PA-cetuximab with and without thrombin (FIG. 4)
[2] = test system: orthotopic Cal-27 xenograft tumors; assay: In vivo ratiometric fluorescence imaging of RACPPs in orthotopic tongue tumor model; conditions: mice, orthotopic Cal-27 tongue tumors, IV injection
Description: FIG. 2. In vivo ratiometric fluorescence imaging of RACPPs in orthotopic tongue tumor model (Cal27) for protease selective probes.

(Acety-QGQSGQCISPRGCPDGPYVMY-PEG6-(Nle-TPRSFL)-PEG24)n-cetuximab [PA-cetuximab]
Binding to Cal-27 cells (DAB staining on membranes) ([1]; FIG. 4 panel C, equivalent with no antibody control (E)): blocks binding | Binding to Cal-27 cells (DAB staining on membranes) ([1]; FIG. 4 panel D): binding | Binding to cells (Cal-27) that express EGFR ([1]; after thrombin treatment): allow binding | Change in size of inhibited complex on acrylamide gel (Thrombin): size shift | EGFR binding (EGFR; after thrombin treatment, EGFR protein): allow binding | EGFR binding (EGFR; without thrombin (solid line)): blocked

KLRFSQK [Cy5/Cy7 RACPP, cathepsin cleavable probe]
Ratiometric fluorescence labeling of tumor versus adjacent tissue [2]: very selective targeting to cancerous tongue

PLGC(me)AG
Ratiometric fluorescence labeling of tumor versus adjacent tissue [2]: good cleavage in the tumor but also had high signal in adjacent tongue

TGRAAA
Ratiometric fluorescence labeling of tumor versus adjacent tissue [2]: high level localized uptake at the center of the tumor

YGRAAA
Ratiometric fluorescence labeling of tumor versus adjacent tissue [2]: tumor specific labeling at high intensity with very low labeling of adjacent tissue

Source: US20220288223A1, “ACTIVATABLE SPECIFIC BINDING MEMBER COMPLEXES, AND METHODS OF MAKING AND USING SAME” (The Regents of the University of California, priority 2019, published 2022)
